Experimental data from PMC9936582, “Sulfamate Acetamides as Self-Immolative Electrophiles for Covalent Ligand-Directed Release Chemistry” (Journal of the American Chemical Society, 2023).

Tested on: Mino cells
Assay: Competitive pull-down proteomics with ibrutinib alkyne probe in Mino cells
Format: cell-based, human
Details: 1 µM compound 1 h
Description: (10 μM). This was followed by a reaction with biotin-azide using CuAAC, enrichment of the labeled proteins, and their quantification by tryptic digestion and LC/MS/MS analysis.
The samples were then precipitated with methanol: chloroform (1 mL of methanol, 250 μL of chloroform, and 750 μL of water), washed with 1 mL of methanol, and air-dried. The samples were solubilized and bound to streptavidin agarose beads in PBS for 3 h at 25 °C. The beads were washed, centrifuged, and resuspended in Tris 50 mM pH 8 and transferred to a clean Eppendorf tube. After this, the bound proteins were eluted by boiling with 5% SDS then reduced with DTT, alkylated with iodoacetamide, and digested with trypsin. The samples were run on LC/MS/MS. The detailed procedure is available in the Supplementary Information. The mass spectrometry proteomics data have been deposited to the ProteomeXchange Consortium via the PRIDE[67] partner repository with the dataset identifiers PXD038301 and PXD038375.
400 µL of 0.1% IGEPAL/PBS were added, and the beads were washed 3 times with 0.1% IGEPAL/PBS, 3 times PBS and 3 times water. The peptides were eluted by incubation with 200 µL of 50% acetonitrile + 0.1% TFA for 5 min, followed by two more portions of 100 µL of 50% acetonitrile + 0.1% TFA. The samples were dried by speedvac, and further purified using Oasis desalting columns (Waters), after which they were dried and run on the instrument.
Pull-down samples preparation […]
incubation with 10 μM “probe 4” for another hour. The samples were prepared in quadruplicates. The cells were washed with cold PBS, from the flasks and frozen. Then, each sample was lysed in 200 μL of […]
The protein in the supernatant was quantified using BCA. For each sample, 250 μL of 1.7 mg/mL was prepared. At this point, 5 μL of 5 mM biotin azide and 9 μL of 100 mM CuSO4/THPTA complex were added. The click reaction was initiated by the addition of 7.5 μL of 150 mM sodium ascorbate, and the samples are incubated at room temperature for 1 h. The samples were then precipitated with methanol/chloroform (1 mL methanol, 250 μL chloroform, 750 μL water), washed with 1 mL of methanol, and air-dried. […]
and heated to 95 °C for 5 min. The samples were then diluted to 1.5 mL with PBS, and 50 μL of streptavidin agarose beads, prewashed with 0.2% SDS in PBS, was added, followed by 3 h incubation at room temperature. Following the incubation, the beads were centrifuged at 2000g for 2 min and washed four times with the following buffers (4 mL in each wash): 2% SDS; 0.1% sodium deoxycholate, 1% Triton X-100, 0.5 M NaCl, 1 mM EDTA, 50 mM HEPES pH = 7.5; 0.25 M NaCl, 0.5% IGEPAL, 0.5% sodium deoxycholate, 1 mM EDTA, 10 mM Tris pH = 8.1; 50 mM Tris pH = 7.4, 50 mM NaCl. […]
with heating to 95 °C for 6 min and occasional vortexing. Finally, the beads were spun down (2 min 2000g) and 80 μL of supernatant was removed to separate tubes. […]
had cooled, 4 μL of iodoacetamide (0.2 M) were added, and the samples were incubated in the dark for 40 min at room temperature. […]
samples were diluted 6-fold with 90% methanol + 50 mM ammonium bicarbonate. The samples were then […]
loaded on S-trap micro columns (Protify), and the columns were washed three times with 150 μL of 90% methanol + 50 mM ammonium bicarbonate. Then, 20 μL of 0.05 μg/μL of trypsin in 50 mM ammonium bicarbonate was added to the columns and the samples were incubated at 47 °C for 90 min. Then, 40 μL of 50 mM ammonium bicarbonate was added, followed by centrifugation and addition of 1 μL of 0.5 μg/μL trypsin to the eluate, which was incubated at 37 °C overnight. The column itself was then eluted using 40 μL of 0.2% formic acid and 40 μL 0.2% formic acid in 50% acetonitrile into a separate tube, which was kept at 4 °C. The two eluates were then combined and evaporated. The samples were further desalted using […]

## CNS(=O)(=O)OCC(=O)N1CCC[C@@H](n2nc(-c3ccc(Oc4ccccc4)cc3)c3c(N)ncnc32)C1 [3c]
4F2_HUMAN
  Log2(Fold Change): -0.003946
AATM_HUMAN
  Log2(Fold Change): 0.8443
ACSF3_HUMAN
  Log2(Fold Change): -0.02243
AHNK_HUMAN
  Log2(Fold Change): 0.1794
ALG1_HUMAN
  Log2(Fold Change): 0.4128
ANXA1_HUMAN
  Log2(Fold Change): -1.116
APEX1_HUMAN
  Log2(Fold Change): 0.3544
ARP3_HUMAN;ARP3B_HUMAN;ARP3C_HUMAN
  Log2(Fold Change): 0.7666
AT1A1_HUMAN;AT1A2_HUMAN;AT1A4_HUMAN;ATP4A_HUMAN;AT12A_HUMAN
  Log2(Fold Change): 0.2874
ATP5H_HUMAN
  Log2(Fold Change): 0.2249
ATPK_HUMAN
  Log2(Fold Change): 0.3336
ATPO_HUMAN
  Log2(Fold Change): 1.122
ATX10_HUMAN
  Log2(Fold Change): 1.148
BST2_HUMAN
  Log2(Fold Change): 1.515
BZW1_HUMAN
  Log2(Fold Change): 1.5907
C1TM_HUMAN
  Log2(Fold Change): 0.2312
CALL5_HUMAN
  Log2(Fold Change): -0.3562
CD20_HUMAN
  Log2(Fold Change): 0.973
CD38_HUMAN
  Log2(Fold Change): 0.2424
CLCA_HUMAN
  Log2(Fold Change): 0.2558
CLH1_HUMAN;CLH2_HUMAN
  Log2(Fold Change): -0.3445
COX2_HUMAN
  Log2(Fold Change): 0.13
CRERF_HUMAN
  Log2(Fold Change): -0.08019
DD19B_HUMAN;DD19A_HUMAN
  Log2(Fold Change): 0.602
DDX3X_HUMAN;DDX3Y_HUMAN;DDX4_HUMAN
  Log2(Fold Change): 0.1847
DNJC7_HUMAN
  Log2(Fold Change): -0.02484
DSC1_HUMAN
  Log2(Fold Change): -0.8463
EF1B_HUMAN
  Log2(Fold Change): -0.1869
EPIPL_HUMAN
  Log2(Fold Change): -1.263
FPPS_HUMAN
  Log2(Fold Change): -0.1485
GCR_HUMAN
  Log2(Fold Change): -0.05313
GLYM_HUMAN;GLYC_HUMAN
  Log2(Fold Change): 0.5085
GSDMA_HUMAN
  Log2(Fold Change): -0.7475
HMCS1_HUMAN
  Log2(Fold Change): 0.08713
HXK2_HUMAN;HXK3_HUMAN
  Log2(Fold Change): 0.7187
IF4A1_HUMAN
  Log2(Fold Change): -0.255
IF4A3_HUMAN
  Log2(Fold Change): 1.002
IF4H_HUMAN
  Log2(Fold Change): 0.7933
IGLL5_HUMAN;IGL1_HUMAN;IGLC1_HUMAN
  Log2(Fold Change): -1.242
LAPM5_HUMAN
  Log2(Fold Change): 0.4417
LAT1_HUMAN
  Log2(Fold Change): -0.2915
LMNA_HUMAN
  Log2(Fold Change): 0.31
MATR3_HUMAN
  Log2(Fold Change): 0.6026
MBB1A_HUMAN
  Log2(Fold Change): 0.2625
MCCA_HUMAN
  Log2(Fold Change): -0.03232
MIC19_HUMAN
  Log2(Fold Change): -0.1615
MP2K7_HUMAN
  Log2(Fold Change): 1.332
NCEH1_HUMAN
  Log2(Fold Change): 0.9366
NT5D1_HUMAN
  Log2(Fold Change): 0.9214
NUCL_HUMAN
  Log2(Fold Change): 0.1005
OTUB1_HUMAN
  Log2(Fold Change): -0.08587
P121C_HUMAN;P121A_HUMAN
  Log2(Fold Change): 0.1409
PARK7_HUMAN
  Log2(Fold Change): 0.4175
PCKGM_HUMAN
  Log2(Fold Change): -0.3825
PEBP1_HUMAN
  Log2(Fold Change): 0.1182
PEPL_HUMAN
  Log2(Fold Change): -0.4806
PFKAL_HUMAN
  Log2(Fold Change): -0.8784
PGK1_HUMAN;PGK2_HUMAN
  Log2(Fold Change): 0.09163
PIP_HUMAN
  Log2(Fold Change): -1.053
PLAK_HUMAN;CTNB1_HUMAN
  Log2(Fold Change): -0.3765
POF1B_HUMAN
  Log2(Fold Change): -0.7349
PSA3_HUMAN
  Log2(Fold Change): 0.7265
PSB8_HUMAN
  Log2(Fold Change): 0.6836
RAB1A_HUMAN;RAB1B_HUMAN;RAB1C_HUMAN
  Log2(Fold Change): 0.7505
RANG_HUMAN;IPKB_HUMAN
  Log2(Fold Change): -0.3363
RAP1B_HUMAN;RAP1A_HUMAN;RP1BL_HUMAN;RAB3D_HUMAN
  Log2(Fold Change): -0.2646
RFTN1_HUMAN
  Log2(Fold Change): 0.04464
RL13A_HUMAN;R13P3_HUMAN
  Log2(Fold Change): 0.8429
RL18_HUMAN
  Log2(Fold Change): 0.1972
RLA1_HUMAN
  Log2(Fold Change): -0.4322
RN3P2_HUMAN
  Log2(Fold Change): -0.1916
RS28_HUMAN
  Log2(Fold Change): 1.548
RTN4_HUMAN
  Log2(Fold Change): 0.4072
RUVB2_HUMAN
  Log2(Fold Change): 0.8939
S38A1_HUMAN
  Log2(Fold Change): 1.036
S61A1_HUMAN;S61A2_HUMAN
  Log2(Fold Change): 1.044
SAE2_HUMAN
  Log2(Fold Change): 0.8904
SATT_HUMAN
  Log2(Fold Change): 0.02917
SCRB1_HUMAN
  Log2(Fold Change): 0.4543
SIAT1_HUMAN
  Log2(Fold Change): 1.583
SO4A1_HUMAN
  Log2(Fold Change): 1.603
SPB4_HUMAN
  Log2(Fold Change): 1.011
SPB12_HUMAN
  Log2(Fold Change): 0.1706
SSDH_HUMAN
  Log2(Fold Change): 0.9154
SUCB1_HUMAN
  Log2(Fold Change): 0.5342
TAP1_HUMAN
  Log2(Fold Change): -1.372
TAP2_HUMAN;ABCB8_HUMAN;ABCBA_HUMAN
  Log2(Fold Change): -0.08664
TBB2B_HUMAN;TBB2A_HUMAN
  Log2(Fold Change): -0.7631
TSN_HUMAN
  Log2(Fold Change): 0.3727
TX264_HUMAN
  Log2(Fold Change): 0.3312
UB2V2_HUMAN;UB2V1_HUMAN
  Log2(Fold Change): 1.079
UBP5_HUMAN
  Log2(Fold Change): -0.3855
UBP14_HUMAN
  Log2(Fold Change): 1.084
URP2_HUMAN
  Log2(Fold Change): 1.649
USMG5_HUMAN
  Log2(Fold Change): 0.5625
VDAC1_HUMAN
  Log2(Fold Change): 0.3406
VEZA_HUMAN
  Log2(Fold Change): 1.904
XPO2_HUMAN
  Log2(Fold Change): 0.4199
XPO5_HUMAN
  Log2(Fold Change): -0.04737
ZDHC8_HUMAN
  Log2(Fold Change): -1.5861
